Measurements as given in patent US10287337B2 (priority 2015, dated 2019).
Values joined by “and” are separate entries in the source; they are usually repeats but may differ in a detail not shown here. Equal entries are not always repeated. No end group written: not given here.

Legend:
[1] = test system: spared nerve injury-induced neuropathic pain in rats; assay: Spared nerve injury (SNI)-induced neuropathic pain model, thermal and mechanical pain thresholds; format: in vivo, rat; details: rat, in vivo
Experimental: Of the three branches of the sciatic nerve the tibial and common peroneal nerves were cut and ligated leaving the sural nerve intact. Pre-surgery baselines (BL, 100%) of the thermal and mechanical pain thresholds of the ipsilateral hindpaws were measured using the Hargreaves thermal stimulator (6.0 A with a surface temperature of 30° C.; Hargreaves et al., 1988) and von Frey hair monofilaments (up-down method, Chaplan et al., 1994). […] All drug testing was conducted with this post-SNI period.
The rat recovered from anesthesia within a few minutes and the thermal and mechanical pain thresholds were determined at 0.5, 1, 2, 3, 4, 5 and 6 hour after the treatment using the methods described above.
Using the same test protocol in a different cohort of SNI rats, novel AFA-peptide 3 (0.1, 1 and 3 μM, each 50 μL) or the vehicle (50 μL) was injected into the ipsilateral hindpaws under a brief and light anesthesia condition (with 2.5% isoflurane). The thermal and mechanical pain thresholds were determined at 0.5, 1, 2, 3, 4, 5 and 6 hour after the treatment. […]

[2] = test system: normal physiological pain sensation in normal rats; assay: Normal rats cheek withdrawal latency to noxious heat; details: rat, in vivo
Experimental: Ideal therapeutics of anti-inflammatory pain or anti-hypersensitivity (occurred in neuropathic pain) should not interfere with normal physiological pain sensations. […] After removing the patches, cheek withdrawal latencies (mean±SEM) were assessed using continuous and noxious heat at different time points within the initial 3 hours test period.

[3] = target: T1, human calcitonin CGRP1 (CGRP1) membrane (Homo sapiens, UniProt O60894+Q16602); format: binding; details: for Hill slope: 0.24 nM [125I]-CGRP, Mean±SD; for binding affinity on CGRP receptors (in words): comparison between peptides
T1 construct: purchased Perkin Elmer (Waltham, Mass.)
Experimental: CGRP1 membrane was homogenized in the assay buffer (50 mM Tris-HCl pH 7.4, 5 mM MgCl2, 0.5% BSA, 0.05% Tween20). […] After 1 h of incubation, at room temperature, samples were filtered, using a Tomtec cell harvester, through glass fiber filters that had been presoaked in 0.05% polyethyleneimine and washed with the cold Tris buffer (50 mM Tris-HCl pH7.4). Filters were counted on a betaplate reader (Wallac).

[4] = test system: UVB radiation-induced inflammatory pain in rat cheek; format: in vivo; details: rat, in vivo
[5] = test system: paw incision-induced postoperative pain in rats; assay: Paw incision-induced postoperative pain model, mechanical pain threshold; format: in vivo, rat; details: rat, in vivo
From the text: A clinically applicable incision model in rodents is a hind-paw deep incision that produces a robust mechanical and cold allodynia, and thermal hyperalgesia (Pogatzki et al., 2003; Xu and Brennan, 2010). Male rats (Sprague-Dawley, 250-260 g, Harlan) used (n=8/group) were anesthetized with 2.5% isoflurane and the skin of the dorsolateral hindpaw surface were prepped by first depilitating it (using Nair), followed by rinsing and application of povidone-iodine. Afterwards, a 5 mm longitudinal incision was made near the hairy/glabrous border though the skin and subcutaneous fascia of the left hindpaw as described by (Pogatzki et al., 2003; Xu and Brennan, 2010). After briefly elevating the underlying muscle with curved forceps the wound is closed with a single nylon (8-0) mattress stitch.
Pre-surgery (baseline) and 24 hours after the surgery, the mechanical allodynia of the incision hindpaws of the rats were assessed using von Frey monofilaments with an up/down procedure (Chaplan et al., 1994). […] Mechanical pain thresholds were measured at 0.5, 1, 2, 3, 4, 5 and 6 hours post-intradermal injection.

[6] = test system: electrocutaneous stimulation-induced facial pain in rats; assay: Electrocutaneous stimulation-induced facial inflammatory pain model; format: in vivo, rat; details: rat, in vivo
Experimental: In humans electrocutaneous stimulation elicited vasodilatation in the cheek (Vassend and Knardahl, 2005). […] Baseline facial thermal thresholds of rats (Sprague-Dawley, male, 260-300 g) were assessed on the rats' depilated left cheek and then each rat received 1 hour of electrocutaneous facial stimulation using WPI ISOSTIM™ A320 (World Precision Instruments, 0.4 mA intensity, 10 ms duration, Is inter-pulse interval). 24 hr after stimulation (Day 1), each rat's thermal pain threshold mediated by A-delta fiber and C fiber were separately measured using a thermal nociception lamp (variable voltage regulator model: No. SC-3M) to evoke A-delta and C nerve fiber-mediated cheek withdrawal. […] Thermal thresholds were measured once every 0.5 hour for the first 3 hours post-I.N. dosing, and then 4, 5, and 6 hour post-I.N. dosing. Voltage regulator set to 90V for A-delta fiber testing and 45V for C fiber testing. Cutoff set at 6 seconds and 20 seconds for A-delta fiber and C fiber testing, respectively.

[7] = test system: STZ-induced diabetic pain in rats; assay: Streptozotocin (STZ)-induced diabetic neuropathic pain model; details: rat, in vivo
Experimental: Painful peripheral neuropathy is a common secondary complication of diabetes mellitus. Streptozotocin (STZ)-induced diabetic polyneuropathy causes more broad pain and has neurogenic inflammation component in rodents (Bishnoi et al., 2011). Prior to STZ administration, each rat's baseline of thermal and mechanical thresholds on their individual hindpaws were assessed using the Hargreaves thermal pain test, and von Frey mechanical pain test, respectively.
After removing the patches, hindpaw withdrawal latencies induced by continuous and noxious heat (Hargreaves) were assessed at 1 hour post-microneedle application.

[8] = test system: UVB radiation-induced inflammatory pain in rat cheek; format: in vivo; details: rat, in vivo; remark: listed apart in the source
From the text: Ultraviolet B (UVB) radiation causes cutaneous inflammation in humans and animals. One important clinical consequence of UVB-induced inflammation is causing hyperalgesia. Changes in thermal sensitivities in the area of primary UVB irradiation are well documented both in humans and in the animal models (Zhang et al., 2009). […] This model provides an experimental model of post radiation pain and can mimic one type of burn pain. To determine the magnitude of anti-inflammatory pain effects for a given drug transdermally delivered by way of microneedle delivery, the depilated rat's cheeks were exposed to an inflammatory dosage of Ultraviolet B radiation (Zhang et al., 2009).
With the skin of a rat's cheek was stretched, the circular (8 mm in diameter) fiberglass applicator of the UV Curing Device (Dymax Bluewave 200) was applied to the center of the rat's cheek. To produce an appropriate inflammation, a total dose of 1200 mJ/cm^2 UVB was administered to one rat cheek for 25 seconds. The same procedure was performed on the rat's contralateral cheek. Upon completion of UVB irradiation, all rats were returned to their home cages and were assessed for thermal pain between 24-48 hours later. […] The rats were lightly anesthetized with urethane (800 mg/kg, IP) and heat-induced withdrawal latencies of the cheeks (an indicator of C fiber stimulation responses) were measured. […] A sham control group (n=6) were only completely depilated and cleansed with ethanol wipes but without UVB challenge.
After removing patches, cheek withdrawal latencies induced by continuous and noxious heat were assessed at different time points from the end of the 20 minute treatment period up to 3 hours post treatment.
The patches were applied on the rat cheek for 20 minutes. After removing the patches, cheek withdrawal latencies induced by continuous and noxious heat were assessed at different time points up to 3 hours as described above.
(§1) After removing the patches, cheek withdrawal latencies induced by continuous and noxious heat were assessed at different time points up to 3 hours.
Accordingly, anti-inflammatory effects were examined 48 hours post-UVB and after the application of the patch. Twelve rats were subjected to UVB radiation (1200 mJ/cm^2). […] The patch was placed over the inflamed area for a period of 20 minutes. […] Sham control group rats (n=6) were completely depilated and cleansed with ethanol wipes but without any other treatment. The rats were returned to their home cages, and assessed for thermal pain responses 48 hours later. As usual, cheek withdrawal latencies in response to continuous and noxious heat were recorded over a 3-hour time period (hours 49-51 post-UVB).
as §1
After removing the patches, cheek withdrawal latencies induced by continuous and noxious heat were assessed at different time points from 20 minutes post administration up to 3 hours.
Because UVB-irradiation may increase skin permeability, a topical formulation, but not limited to the sample shown here, was made.

T1 sequence (O60894 27-148): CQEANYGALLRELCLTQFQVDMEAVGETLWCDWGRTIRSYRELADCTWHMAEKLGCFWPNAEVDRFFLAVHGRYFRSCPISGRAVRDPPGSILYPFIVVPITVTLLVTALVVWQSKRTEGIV
T1 sequence (Q16602 23-461): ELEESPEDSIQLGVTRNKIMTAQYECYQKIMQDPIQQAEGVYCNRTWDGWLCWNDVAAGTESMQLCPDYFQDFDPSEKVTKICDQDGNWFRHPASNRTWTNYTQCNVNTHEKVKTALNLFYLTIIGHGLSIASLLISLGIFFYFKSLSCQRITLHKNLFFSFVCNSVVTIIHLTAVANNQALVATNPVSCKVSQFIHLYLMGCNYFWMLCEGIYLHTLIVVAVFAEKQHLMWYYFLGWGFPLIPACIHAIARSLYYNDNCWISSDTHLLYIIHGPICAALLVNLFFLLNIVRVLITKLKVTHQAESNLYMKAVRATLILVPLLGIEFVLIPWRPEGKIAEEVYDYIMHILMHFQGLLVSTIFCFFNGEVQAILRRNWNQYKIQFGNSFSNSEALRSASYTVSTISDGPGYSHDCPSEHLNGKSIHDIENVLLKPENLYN

CCN(CC)CC(=O)Nc1c(C)cccc1C [Lidocaine, lidocaine]
thermal and mechanical pain thresholds (in words) [1]: produced positive control
analgesic effect on normal nociceptive pain (in words) [2]: produced analgesic effect on normal nociceptive pain

H-NFLPTNVGPFAF-NH2 [AFA- peptide 7, NH2-N-F-L-P-T-N-V-G-P-F-A-F-CONH2]
Hill slope [3]: 1.03 ± 0.15
binding affinity on CGRP receptors (in words) [3]: higher affinities than conventional CGRP 27-37 and CGRP 8-37

CSCC[C@H](NC(=O)CNC(=O)CNC(=O)[C@H](CO)NC(=O)[C@H](CCCNC(=N)N)NC(=O)[C@H](CO)NC(=O)[C@H](CC(C)C)NC(=O)[C@H](CC(C)C)NC(=O)CNC(=O)[C@H](C)NC(=O)[C@H](CC(C)C)NC(=O)[C@H](CCCNC(=N)N)NC(=O)[C@H](Cc1c[nH]cn1)NC(=O)[C@@H](NC(=O)[C@@H](N)C(C)C)[C@@H](C)O)C(=O)N[C@H](C(=O)N[C@@H](CCCCN)C(=O)N[C@@H](CO)C(=O)N[C@@H](CC(N)=O)C(=O)N[C@@H](Cc1ccccc1)C(=O)N[C@H](C(=O)N1CCC[C@H]1C(=O)N[C@H](C(=O)N[C@@H](CC(N)=O)C(=O)N[C@H](C(=O)NCC(=O)N[C@@H](CO)C(=O)N[C@@H](CCCCN)C(=O)N[C@@H](C)C(=O)N[C@@H](Cc1ccccc1)C(N)=O)C(C)C)[C@@H](C)O)C(C)C)C(C)C [CGRP 8-37]
A-delta-fiber-mediated responses (in words) [4]: little effects
mechanical pain thresholds vs vehicle (in words) [5]: significantly increased mechanical pain thresholds
onset of analgesic effect post treatment [5]: 1 h
A-delta fiber-mediated pain withdrawal latencies vs vehicle (in words) [6]: insignificant analgesic effects
C-fiber-mediated pain withdrawal latencies vs vehicle (in words) [6]: even more substantial and significantly prolonged
thermal pain thresholds in naïve, non-facial stimulation rats (in words) [6]: did not alter thermal pain thresholds
duration of anti-allodynic effect [1]: up to 6 hours
duration of thermal antihyperalgesic effect [1]: up to 5 hours
effect on thermal threshold (in words) [1]: full reversal to baseline thermal threshold values
return toward baseline mechanical sensitivity [1]: ~25%
thermal and mechanical pain thresholds (in words) [1]: reduced SNI-induced neuropathic pain
time of full reversal / peak antihyperalgesic effect after application [1]: around 1 hour
time of maximal anti-allodynic effect post-microneedle application [1]: 3 h
return to mechanical pain baseline values [7]: 35%
thermal threshold (in words) [7]: full return to their baseline thermal thresholds
Average Reduced Latency for Inflammation, Mean [8]: 9.9 s and 10.5 s and 11.2 s and 11.0 s and 12.2 s and 8.0 s and 9.1 s
C-fiber-mediated thermal pain thresholds vs vehicle (in words) [8]: significant and substantial increase
duration of action [8]: 2 h
Normal Rats Average Pain Response Latency, Mean [2]: 10.3 s and 11.0 s and 11.2 s and 10.6 s and 10.5 s and 9.6 s and 10.1 s and 10.2 s
analgesic effect on normal nociceptive pain (in words) [2]: did not produce any measurable analgesic effect

H-NFFPTNVGPFAF-NH2 [AFA- peptide 9, NH2-N-F-F-P-T-N-V-G-P-F-A-F-CONH2]
Hill slope [3]: 1.07 ± 0.05
binding affinity on CGRP receptors (in words) [3]: higher affinities than conventional CGRP 27-37 and CGRP 8-37

NCC1(CC(=O)O)CCCCC1 [Gabapentin, gabapentin]
duration of thermal antihyperalgesic effect [1]: 3 h
effect on thermal threshold (in words) [1]: significant antihyperalgesic effect
time of full reversal / peak antihyperalgesic effect after application [1]: 1 h

H-NLVPTNVGPFAF-NH2 [AFA- peptide 8, NH2-N-L-V-P-T-N-V-G-P-F-A-F-CONH2]
Hill slope [3]: 0.88 ± 0.18

YVPTAVGPFAF-NH2 [CGRP 27-37]
Hill slope [3]: 1.62 ± 0.25

H-NFIPTNVGPFAF-NH2 [AFA- peptide 6, NH2-N-F-I-P-T-N-V-G-P-F-A-F-CONH2]
Hill slope [3]: 1.13 ± 0.13

H-NFAPTNVGPFAF-NH2 [AFA- peptide 10, NH2-N-F-A-P-T-N-V-G-P-F-A-F-CONH2]
Hill slope [3]: 1.07 ± 0.01
binding affinity on CGRP receptors (in words) [3]: higher affinities than conventional CGRP 27-37 and CGRP 8-37
